Data on eight compounds can be found in patent US20240262842A1, “SMALL MOLECULE INHIBITORS OF KRAS G12C MUTANT” (Merck Sharp & Dohme LLC, priority 2021, published 2024).

In assay [1] the test system is MIA PaCa-2 cells. Briefly: Growth inhibition activity on KRAS-G12C mutant cell line (CellTiter-Glo 3D). The format is cell-based, human. The conditions noted are these: MIA PaCa-2, 3-day culture with compound. The method, boiled down:
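IC50 (nM) derived from inhibition of luminescence (CellTiter-Glo 3D) relative to compound-free wells. Cells were seeded in U-bottom plates, grown 1 day, then exposed to compound for 3 days at 37 °C with 0.2% final DMSO.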
Background: In ATP-based viability assays light output follows the ATP content of the culture.

The target of assay [2] is T1, interaction between GMPPNP-bound recombinant K-Ras4B G12C mutant protein and cRAF RAS-binding domain (cRAF-RBD) (Homo sapiens, UniProt P01116, G12C).
T1 construct: His-tag (N)
T1 sequence (P01116 with tags, fused parts or gaps isoform P01116-2 G12C): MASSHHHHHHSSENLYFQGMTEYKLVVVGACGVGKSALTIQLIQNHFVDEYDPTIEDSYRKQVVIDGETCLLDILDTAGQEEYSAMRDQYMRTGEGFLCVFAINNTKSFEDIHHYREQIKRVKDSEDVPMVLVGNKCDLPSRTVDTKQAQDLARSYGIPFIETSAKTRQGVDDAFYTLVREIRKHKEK
The assay is described as follows: Inhibitory activity on interaction between KRAS G12C and cRAF (Alpha technology). An outline of the steps: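 Alpha signal measured 1.5 h after adding cRAF-RBD (aa 50-132) and detection reagents to GMPPNP-bound KRAS G12C (aa 1-169) pretreated 1 h at 25° C with compound (pH 7.5 buffer). 0% inhibition = DMSO, 100% = GDP-loaded KRAS; IC50 by curve fit.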

Where [3] appears, read: Homo sapiens, MIA PaCa-2, 72 h, Table 3-1.
Setting [4] is: IC50, GMPPNP-bound KRAS G12C incubated with compound 25° C. 1 hour, Table 2-1.
Setting [5] is: GMPPNP-bound KRAS G12C incubated with compound 25° C. 1 hour, Table 2-1, read-out: IC50.
[6] abbreviates: IC50, GMPPNP-bound KRAS G12C incubated with compound 25° C. 1 hour, Table 2.

pIC50: −log10 of the molar value. Where two headings read alike, the source gives them in different places.

For orientation: pIC50 means −log10 of the IC50, conventionally taken in molar units. With `CCN1CCn2cc(C(=O)c3cc(F)c(NC(=O)/C=C/CN[C@H]4CC[C@H](OC)CC4)c(F)c3)c3cccc(c32)-c2c(C)cc3c(nc(C)n3C)c21` [Example 66, (E)-N-(4-(11-ethyl-6,8,9-trimethyl-8,11,12,13-tetra-hydroimidazo[4″,5″:5′,6′]-benzo[1′,2′:5,6][1,4]diazo-cino[7,8,1-hi]indole-2-carbonyl)-2,6-difluoro-phenyl)-4-(((1r,4r)-4-meth-oxycyclohexyl)amino)but-2-enamide], the pIC50 was 7.52 in assay [1] (setting [3]) and 7.27 in assay [2] (setting [4]).

Regarding `Cn1cnc2c3c(c(C(F)(F)F)cc21)-c1cccn2c(C(=O)c4cc(F)c(NC(=O)/C=C/CN5[C@@H]6CC[C@H]5[C@@H](O)C6)c(F)c4)cc(c12)CCO3` (racemic) [Example 172], the negative-log IC50 (pIC50) in assay [1] (setting [3]) is 7.79; in assay [2] (setting [5]), 7.98.

Turning to `CO[C@H]1CC[C@H](NC/C=C/C(=O)Nc2c(F)cc(C(=O)c3cn4c5c(cccc35)-c3c(ccc(C#N)c3Cl)OCC4)cc2F)CC1` [Example 9, (E)-N-(4-(10-chloro-9-cyano-4,5-dihydrobenzo[7,8][1:4]oxazocino[6,5,4-hi]indole-1-9 carbonyl)-2,6-difluorophenyl)-4-(((1,4r)-4-methoxycyclohexyl)amino)but-2-enamide], the pIC50 in assay [1] (Homo sapiens, MIA PaCa-2, 72 h, Table 3) is 6.12; in assay [2] (setting [6]), 5.82.

As for `CO[C@H]1CC[C@H](NC/C=C/C(=O)Nc2c(F)cc(C(=O)c3cn4c5c(cccc35)-c3c(C)cc5c(nc(C)n5C)c3OCC3(CC3)C4)cc2F)CC1` (single isomer, unassigned) [Example 21-1, (E)-N-(2,6-difluoro-4-(6′,8′,9′-trimethyl-8′H, 12′H,14′H-spiro[cyclopropane-1,13-imidazo[4″,5″:3′,4′]benzo[1′,2:8,9][1,5]oxazonino[7,6,5-hi]indole]-2′-carbonyl)phenyl)-4-(((1r,4t)-4-methoxycyclohexyl)amino)but-2-enamide], the results for the negative logarithm of the IC50 (pIC50) in assay [1] (Table 3) and in assay [2] (setting [6]) were 7.66 and 7.36, respectively.

As to `CC1Cc2cc(C(=O)c3cc(F)c(NC(=O)/C=C/CNC4(C)COC4)c(F)c3)n3cccc(c23)-c2c(C(F)(F)F)cc3c(ncn3C)c2O1` (single isomer, unassigned) [Example 131, (E)-N-(4-(9,13-dimethyl-7-(trifluoromethyl)-13,14-dihydro-9H-imidazo[4″,5″:5′,6′]benzo[1′,2′:2,3]oxocino[4,5,6-hi]indolizine-2-carbonyl)-2,6-difluorophenyl)-4-((3-methyloxetan-3-yl)amino)but-2-enamide], the negative-log IC50 (pIC50) in assay [1] (Table 3-1) is 7.39; in assay [2] (setting [5]), 7.55.

`CN1CCc2cc(C(=O)c3cc(F)c(NC(=O)/C=C/CN[C@@H]4CCCC[C@H]4O)c(F)c3)n3cccc(c23)-c2c(C(F)(F)F)cc3c(ncn3C)c21` [Example 100, (E)-N-(4-(9,12-dimethyl-7-(trifluoromethyl)-9,12,13,14-tetrahydro-imidazo[4″,5″:5′,6′]benzo-[1′,2′:2,3]azocino[4,5,6-hi]indolizine-2-carbonyl)-2,6-difluorophenyl)-4-(((1R,2R)-2-hydroxy-cyclohexyl)amino)but-2-enamide]: the pIC50 in assay [1] (setting [3]) was 7.63; in assay [2] (setting [5]) it was 7.46.

As to `COc1cc2c(nc(C)n2C)c2c1-c1cccn3c(C(=O)c4cc(F)c(NC(=O)/C=C/CN[C@H]5CCOC5)c(F)c4)cc(c13)CCN2C` (single isomer, unassigned) [Example 129], the figures for the pIC50 in assay [1] (setting [3]) and in assay [2] (setting [5]) were 8.15 and 8.06, respectively.

Take `Cc1cc2c(nc(C)n2C)c2c1-c1cccc3c(C(=O)c4cc(F)c(NC(=O)/C=C/CNC56CCC(CC5)OC6)c(F)c4)cn(c13)CCN2C` [Example 119, (E)-4-((2-oxabicyclo-[2.2.2]octan-4-yl)amino)-N-(2,6-difluoro-4-(6,8,9,11-tetramethyl-8,11,12,13-tetrahydro-imidazo[4″,5″:5′,6′]benzo-[1′,2′:5,6][1,4]diazocino-[7,8,1-hi]indole-2-carbon-yl)phenyl)but-2-enamide]: the results for the negative logarithm of the IC50 (pIC50) in assay [1] (Table 3-1) and in assay [2] (setting [4]) were 8.03 and 7.77, respectively.
